Results published in ChEMBL document CHEMBL3797052 (Eur J Med Chem, 2016).

Test system: not listed separately
Assay: Antiproliferative activity against human RXF393 cells assessed as cell growth at 10^-4 M after 48 hrs by sulforhodamine B assay
Format: functional
Conditions: RXF 393, 48 h, read-out: Activity
Work on `CNC(=O)c1cc(Oc2ccc3nc(NC(=O)Nc4cc(C(F)(F)F)cc(C(F)(F)F)c4)sc3c2)ccn1` yielded a growth at 100 µM of -70%.

Test system: not listed separately
Assay: Antiproliferative activity against human DU145 cells assessed as cell growth at 10^-6 M after 48 hrs by sulforhodamine B assay
Format: functional
Conditions: DU-145, 48 h, read-out: Activity
In the case of `CNC(=O)c1cc(Oc2ccc3nc(NC(=O)Nc4cc(C(F)(F)F)cc(C(F)(F)F)c4)sc3c2)ccn1`, the growth at 1 µM is reported as 63%.

Test system: NCI-H522
Assay: Antiproliferative activity against human NCI-H522 cells assessed as cell growth at 10^-4 M after 48 hrs by sulforhodamine B assay
Format: functional
Conditions: NCI-H522, 48 h, read-out: Activity
In the case of `CNC(=O)c1cc(Oc2ccc3nc(NC(=O)Nc4cc(C(F)(F)F)cc(C(F)(F)F)c4)sc3c2)ccn1`, the growth at 100 µM is reported as -67%.

Test system: not listed separately
Assay: Antiproliferative activity against human PC3 cells assessed as cell growth at 10^-8 M after 48 hrs by sulforhodamine B assay
Format: functional
Conditions: PC-3, 48 h, read-out: Activity
Compound `CNC(=O)c1cc(Oc2ccc3nc(NC(=O)Nc4cc(C(F)(F)F)cc(C(F)(F)F)c4)sc3c2)ccn1` has a growth at 0.01 µM of 101%.

Test system: not listed separately
Assay: Antiproliferative activity against human Hs 578T cells assessed as cell growth at 10^-7 M after 48 hrs by sulforhodamine B assay
Format: functional
Conditions: read-out: Activity
For `CNC(=O)c1cc(Oc2ccc3nc(NC(=O)Nc4cc(C(F)(F)F)cc(C(F)(F)F)c4)sc3c2)ccn1`, the growth at 0.1 µM was 100%.

Test system: Malme-3M
Assay: Antiproliferative activity against human MALME-3M cells assessed as cell growth at 10^-8 M after 48 hrs by sulforhodamine B assay
Format: functional
Conditions: read-out: Activity
For `CNC(=O)c1cc(Oc2ccc3nc(NC(=O)Nc4cc(C(F)(F)F)cc(C(F)(F)F)c4)sc3c2)ccn1`, the growth at 0.01 µM was 96%.

Test system: SK-MEL-5
Assay: Antiproliferative activity against human SK-MEL-5 cells assessed as cell growth at 10^-8 M after 48 hrs by sulforhodamine B assay
Format: functional
Conditions: SK-MEL-5, 48 h, read-out: Activity
In the case of `CNC(=O)c1cc(Oc2ccc3nc(NC(=O)Nc4cc(C(F)(F)F)cc(C(F)(F)F)c4)sc3c2)ccn1`, the growth at 0.01 µM is reported as 97%.

Test system: ACHN
Assay: Antiproliferative activity against human ACHN cells assessed as growth inhibition after 48 hrs by sulforhodamine B assay
Format: functional
Conditions: not given
With `CNC(=O)c1cc(Oc2ccc3nc(NC(=O)Nc4cc(C(F)(F)F)cc(C(F)(F)F)c4)sc3c2)ccn1` the GI50 was 0.542 µM, the LC50 was 5.7 µM and the TGI was 1.98 µM.

Test system: MDA-MB-468
Assay: Antiproliferative activity against human MDA-MB-468 cells assessed as cell growth at 10^-4 M after 48 hrs by sulforhodamine B assay
Format: functional
Conditions: MDA-MB-468, 48 h, read-out: Activity
With `CNC(=O)c1cc(Oc2ccc3nc(NC(=O)Nc4cc(C(F)(F)F)cc(C(F)(F)F)c4)sc3c2)ccn1` the growth at 100 µM was -75%.

Test system: EKVX
Assay: Antiproliferative activity against human EKVX cells assessed as cell growth at 10^-8 M after 48 hrs by sulforhodamine B assay
Format: functional
Conditions: read-out: Activity
In the case of `CNC(=O)c1cc(Oc2ccc3nc(NC(=O)Nc4cc(C(F)(F)F)cc(C(F)(F)F)c4)sc3c2)ccn1`, the growth at 0.01 µM is reported as 81%.

Test system: EKVX
Assay: Antiproliferative activity against human EKVX cells assessed as cell growth at 10^-6 M after 48 hrs by sulforhodamine B assay
Format: functional
Conditions: read-out: Activity
In the case of `CNC(=O)c1cc(Oc2ccc3nc(NC(=O)Nc4cc(C(F)(F)F)cc(C(F)(F)F)c4)sc3c2)ccn1`, the growth at 1 µM is reported as 60%.

Test system: MDA-MB-435
Assay: Antiproliferative activity against human MDA-MB-435 cells assessed as growth inhibition after 48 hrs by sulforhodamine B assay
Format: functional
Conditions: MDA-MB-435, 48 h
In the case of `CNC(=O)c1cc(Oc2ccc3nc(NC(=O)Nc4cc(C(F)(F)F)cc(C(F)(F)F)c4)sc3c2)ccn1`, the GI50 is reported as 1.04 µM and the TGI is reported as 2.7 µM.

Same assay, conditions: MDA-MB-435, 48 h, read-out: LC50 (the source's name)
For `CNC(=O)c1cc(Oc2ccc3nc(NC(=O)Nc4cc(C(F)(F)F)cc(C(F)(F)F)c4)sc3c2)ccn1`, the CC50 was 6.99 µM.

Test system: not listed separately
Assay: Antiproliferative activity against human SW620 cells assessed as cell growth at 10^-7 M after 48 hrs by sulforhodamine B assay
Format: functional
Conditions: SW-620, 48 h, read-out: Activity
`CNC(=O)c1cc(Oc2ccc3nc(NC(=O)Nc4cc(C(F)(F)F)cc(C(F)(F)F)c4)sc3c2)ccn1` showed a growth at 0.1 µM of 113%.

Test system: not listed separately
Assay: Antiproliferative activity against human SF539 cells assessed as cell growth at 10^-8 M after 48 hrs by sulforhodamine B assay
Format: functional
Conditions: SF-539, 48 h, read-out: Activity
Compound `CNC(=O)c1cc(Oc2ccc3nc(NC(=O)Nc4cc(C(F)(F)F)cc(C(F)(F)F)c4)sc3c2)ccn1` has a growth at 0.01 µM of 96%.

Test system: not listed separately
Assay: Antiproliferative activity against human UO31 cells assessed as growth inhibition after 48 hrs by sulforhodamine B assay
Format: functional
Conditions: UO-31, 48 h
`CNC(=O)c1cc(Oc2ccc3nc(NC(=O)Nc4cc(C(F)(F)F)cc(C(F)(F)F)c4)sc3c2)ccn1` showed a GI50 of 1.26 µM and a TGI of 2.68 µM.

Same assay, conditions: UO-31, 48 h, read-out: LC50 (the source's name)
`CNC(=O)c1cc(Oc2ccc3nc(NC(=O)Nc4cc(C(F)(F)F)cc(C(F)(F)F)c4)sc3c2)ccn1` showed a CC50 of 5.71 µM.

Molecular target: RAF proto-oncogene serine/threonine-protein kinase (Homo sapiens, UniProt P04049)
Sequence (P04049 whole entry): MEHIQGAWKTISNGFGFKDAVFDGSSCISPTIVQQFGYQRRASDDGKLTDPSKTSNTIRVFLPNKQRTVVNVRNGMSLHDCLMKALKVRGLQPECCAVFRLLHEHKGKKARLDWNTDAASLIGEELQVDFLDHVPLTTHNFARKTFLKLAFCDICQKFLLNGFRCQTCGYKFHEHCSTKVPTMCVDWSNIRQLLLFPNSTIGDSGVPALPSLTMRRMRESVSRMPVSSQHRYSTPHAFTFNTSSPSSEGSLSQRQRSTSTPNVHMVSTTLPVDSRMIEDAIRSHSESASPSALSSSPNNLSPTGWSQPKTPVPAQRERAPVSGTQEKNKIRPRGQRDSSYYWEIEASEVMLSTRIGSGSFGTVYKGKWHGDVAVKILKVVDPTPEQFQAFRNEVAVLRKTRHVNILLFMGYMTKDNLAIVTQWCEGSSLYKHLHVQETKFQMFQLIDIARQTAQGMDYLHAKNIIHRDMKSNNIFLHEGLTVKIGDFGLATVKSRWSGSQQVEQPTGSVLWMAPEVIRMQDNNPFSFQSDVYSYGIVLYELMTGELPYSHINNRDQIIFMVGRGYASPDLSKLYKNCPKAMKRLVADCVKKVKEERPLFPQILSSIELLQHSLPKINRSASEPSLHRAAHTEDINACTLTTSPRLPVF
Assay: Inhibition of human CRAF at 10 uM measured after 40 mins by scintillation counting
Conditions: not given
With `CNC(=O)c1cc(Oc2ccc3nc(NC(=O)Nc4cc(C(F)(F)F)cc(C(F)(F)F)c4)sc3c2)ccn1` the inhibition was 77%.

Test system: not listed separately
Assay: Antiproliferative activity against human COLO205 cells assessed as cell growth at 10^-8 M after 48 hrs by sulforhodamine B assay
Format: functional
Conditions: COLO 205, 48 h, read-out: Activity
With `CNC(=O)c1cc(Oc2ccc3nc(NC(=O)Nc4cc(C(F)(F)F)cc(C(F)(F)F)c4)sc3c2)ccn1` the growth at 0.01 µM was 90%.

Test system: not listed separately
Assay: Antiproliferative activity against human OVCAR5 cells assessed as cell growth at 10^-6 M after 48 hrs by sulforhodamine B assay
Format: functional
Conditions: OVCAR-5, 48 h, read-out: Activity
Compound `CNC(=O)c1cc(Oc2ccc3nc(NC(=O)Nc4cc(C(F)(F)F)cc(C(F)(F)F)c4)sc3c2)ccn1` has a growth at 1 µM of 77%.

Test system: not listed separately
Assay: Antiproliferative activity against human HCT116 cells assessed as cell growth at 10^-8 M after 48 hrs by sulforhodamine B assay
Format: functional
Conditions: HCT-116, 48 h, read-out: Activity
For `CNC(=O)c1cc(Oc2ccc3nc(NC(=O)Nc4cc(C(F)(F)F)cc(C(F)(F)F)c4)sc3c2)ccn1`, the growth at 0.01 µM was 102%.
